Measured values reported in patent US20240043427A1 (Gilead Sciences, Inc., priority 2020, published 2024).

How the values were obtained:
CD73 [1] = target: T1, CD73 (Homo sapiens (Human), UniProt P21589); experiment: MDA-MB-231 Cell Based CD73 Activity Assay (DMEM); conditions: MDA-MB-231-GFP cells, DMEM medium with 10% human plasma, 200 uM AMP
CD73 [2] = target: T1, CD73; format: biochemical; conditions: 1 mM NaH2PO4 in enzyme buffer, CD73 0.3 nM, AMP 15 uM

T1 sequence (P21589 27-574): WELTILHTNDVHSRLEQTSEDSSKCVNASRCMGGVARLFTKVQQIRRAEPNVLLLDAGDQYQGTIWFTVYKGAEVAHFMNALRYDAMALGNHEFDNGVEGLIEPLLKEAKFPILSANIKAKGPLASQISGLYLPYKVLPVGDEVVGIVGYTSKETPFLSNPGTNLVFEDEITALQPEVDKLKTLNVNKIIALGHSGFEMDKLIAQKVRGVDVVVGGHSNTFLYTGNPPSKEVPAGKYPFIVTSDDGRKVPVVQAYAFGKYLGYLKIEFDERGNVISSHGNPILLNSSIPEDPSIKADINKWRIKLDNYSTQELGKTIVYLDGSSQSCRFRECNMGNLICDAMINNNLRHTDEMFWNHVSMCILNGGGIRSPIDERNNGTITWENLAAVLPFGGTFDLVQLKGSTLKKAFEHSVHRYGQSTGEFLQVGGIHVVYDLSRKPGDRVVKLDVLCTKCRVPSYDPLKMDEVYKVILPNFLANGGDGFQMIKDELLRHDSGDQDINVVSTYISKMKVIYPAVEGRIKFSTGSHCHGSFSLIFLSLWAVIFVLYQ

Row | SMILES | EC50 (CD73 [1]) [nM] | IC50 (CD73 [2]) [nM]
1 | O=c1[nH]cc(-c2cc(N3CC(F)(CO)C3)c3nccn3n2)c(=O)[nH]1 [Example 423, 5-(8-(3-fluoro-3-(hydroxymethyl)azetidin-1-yl)imidazo[1,2-b]pyridazin-6-yl)pyrimidine-2,4(1H,3H)-dione] | 76.4 | 39.2
2 | O=c1[nH]cc(-c2cc([C@H]3C[C@@H]3c3ccc4ccn(CC(F)(F)F)c(=O)c4c3)c3nccn3n2)c(=O)[nH]1 [Example 707, 5-(8-((1S,2S)-2-(1-oxo-2-(2,2,2-trifluoroethyl)-1,2-dihydroisoquinolin-7-yl)cyclopropyl)imidazo[1,2-b]pyridazin-6-yl)pyrimidine-2,4(1H,3H)-dione] | 8.88 | 2.65
3 | O=c1[nH]cc(-c2cc(OCC(F)(F)COc3ccccn3)c3nccn3n2)c(=O)[nH]1 [Example 695, 5-(8-(2,2-difluoro-3-(pyridin-2-yloxy)propoxy)imidazo[1,2-b]pyridazin-6-yl)pyrimidine-2,4(1H,3H)-dione] | 17.4 | 1.82
4 | O=c1[nH]cc(-c2cc(OCC(F)(F)CO)c3nccn3n2)c(=O)[nH]1 [Example 687, 5-(8-(2,2-difluoro-3-hydroxypropoxy)imidazo[1,2-b]pyridazin-6-yl)pyrimidine-2,4(1H,3H)-dione] | 53.5 | 8.72
5 | O=c1[nH]cc(-c2cc([C@H]3C[C@@H]3c3cc4c(cn3)c(F)cn4CC(F)(F)F)c3nccn3n2)c(=O)[nH]1 [Example 706, 5-(8-((1S,2S)-2-(3-fluoro-1-(2,2,2-trifluoroethyl)-1H-pyrrolo[3,2-c]pyridin-6-yl)cyclopropyl)imidazo[1,2-b]pyridazin-6-yl)pyrimidine-2,4(1H,3H)-dione] | 0.15 | 0.33
6 | O=c1[nH]cc(-c2cc(N3CC(C(F)F)C4(CC4)C3)c3nccn3n2)c(=O)[nH]1 (stereo not drawn) [Example 170, 5-(8-(7-(difluoromethyl)-5-azaspiro[2.4]heptan-5-yl)imidazo[1,2-b]pyridazin-6-yl)pyrimidine-2,4(1H,3H)-dione] | 136 | 35.4
7 | O=c1[nH]cc(-c2cc(N3C[C@H](Oc4cc(C(F)F)ccn4)C(F)(F)C3)c3nccn3n2)c(=O)[nH]1 [Example 341, (S)-5-(8-(4-((4-(difluoromethyl)pyridin-2-yl)oxy)-3,3-difluoropyrrolidin-1-yl)imidazo[1,2-b]pyridazin-6-yl)pyrimidine-2,4(1H,3H)-dione] | 0.53 | 0.43
8 | O=c1[nH]cc(-c2cc(N3CC[C@@H](C(F)F)C3)c3nccn3n2)c(=O)[nH]1 [Example 230, (R)-5-(8-(3-(difluoromethyl)pyrrolidin-1-yl)imidazo[1,2-b]pyridazin-6-yl)pyrimidine-2,4(1H,3H)-dione] | 64.7 | 39.5
9 | O=c1[nH]cc(-c2cc(NCCc3cccc(C(F)(F)F)c3)c3nccn3n2)c(=O)[nH]1 [Example 489, 5-(8-((3-(trifluoromethyl)phenethyl)amino)imidazo[1,2-b]pyridazin-6-yl)pyrimidine-2,4(1H,3H)-dione] | 1680 | > 250
10 | O=c1[nH]cc(-c2cc(N3CCC4(CCOCC4)C3)c3nccn3n2)c(=O)[nH]1 [Example 275, 5-(8-(8-oxa-2-azaspiro[4.5]decan-2-yl)imidazo[1,2-b]pyridazin-6-yl)pyrimidine-2,4(1H,3H)-dione] | 36.2 | 8.64
11 | O=c1[nH]cc(-c2cc(N3CC4(C3)CC4(F)F)c3nccn3n2)c(=O)[nH]1 [Example 406, 5-(8-(1,1-difluoro-5-azaspiro[2.3]hexan-5-yl)imidazo[1,2-b]pyridazin-6-yl)pyrimidine-2,4(1H,3H)-dione] | 98.2 | 25.6
12 | CC1(C)CN(c2cc(-c3c[nH]c(=O)[nH]c3=O)nn3c(F)c(C4CC4)nc23)CC1(F)F [Example 440, 5-(2-cyclopropyl-8-(3,3-difluoro-4,4-dimethylpyrrolidin-1-yl)-3-fluoroimidazo[1,2-b]pyridazin-6-yl)pyrimidine-2,4(1H,3H)-dione] | 140 | 38.2
13 | C[C@]1(F)CCN(c2cc(-c3c[nH]c(=O)[nH]c3=O)nn3ccnc23)C1 [Example 191, 5-[8-[(3S)-3-fluoro-3-methyl-pyrrolidin-1-yl]imidazo[1,2-b]pyridazin-6-yl]-1H-pyrimidine-2,4-dione] | 45.8 | 21.8
14 | O=C(NC12CC(C1)C2)O[C@H]1CN(c2cc(-c3c[nH]c(=O)[nH]c3=O)nn3ccnc23)CC1(F)F [Example 551, (S)-1-(6-(2,4-dioxo-1,2,3,4-tetrahydropyrimidin-5-yl)imidazo[1,2-b]pyridazin-8-yl)-4,4-difluoropyrrolidin-3-yl bicyclo[1.1.1]pentan-1-ylcarbamate] | 0.13 | 0.24
15 | COc1cc([C@H]2C[C@@H]2c2cc(-c3c[nH]c(=O)[nH]c3=O)nn3ccnc23)ccc1C#N [Example 559, 4-((1S,2S)-2-(6-(2,4-dioxo-1,2,3,4-tetrahydropyrimidin-5-yl)imidazo[1,2-b]pyridazin-8-yl)cyclopropyl)-2-methoxybenzonitrile] | 7.77 | 0.97
16 | O=c1[nH]cc(-c2cc([C@H]3C[C@@H]3c3cc4c(cn3)c(F)cn4CC(F)(F)F)c3nccn3n2)c(=O)[nH]1 [Example 392, 5-(8-((1S,2S)-2-(3-fluoro-1-(2,2,2-trifluoroethyl)-1H-pyrrolo[3,2-c]pyridin-6-yl)cyclopropyl)imidazo[1,2-b]pyridazin-6-yl)pyrimidine-2,4(1H,3H)-dione] | 0.34 | 1.25
17 | COCC1(F)CCN(c2cc(-c3c[nH]c(=O)[nH]c3=O)nn3ccnc23)C1 (stereo not drawn) [Example 188, 5-[8-[3-fluoro-3-(methoxymethyl)pyrrolidin-1-yl]imidazo[1,2-b]pyridazin-6-yl]-1H-pyrimidine-2,4-dione] | 62.5 | 17.5
18 | O=c1[nH]cc(-c2cc([C@H]3C[C@@H]3c3cc(-c4ccccc4C(F)(F)F)ccn3)c3nccn3n2)c(=O)[nH]1 (racemic) [Example 622, 5-(8-((1S,2S)-2-(4-(2-(trifluoromethyl)phenyl)pyridin-2-yl)cyclopropyl)imidazo[1,2-b]pyridazin-6-yl)pyrimidine-2,4(1H,3H)-dione] | 27.3 | 2.87
19 | O=c1[nH]cc(-c2cc(N3CC(F)(F)C4(CN(Cc5cccc(F)c5)C4)C3)c3nccn3n2)c(=O)[nH]1 [Example 502, 5-(8-(8,8-difluoro-2-(3-fluorobenzyl)-2,6-diazaspiro[3.4]octan-6-yl)imidazo[1,2-b]pyridazin-6-yl)pyrimidine-2,4(1H,3H)-dione] | 44.4 | 9.06
20 | O=c1[nH]cc(-c2cc(N3CC(C4CC4(F)F)C3)c3nccn3n2)c(=O)[nH]1 (stereo not drawn) [Example 400, 5-(8-(3-(2,2-difluorocyclopropyl)azetidin-1-yl)imidazo[1,2-b]pyridazin-6-yl)pyrimidine-2,4(1H,3H)-dione] | 547 | 207
21 | O=c1[nH]cc(-c2cc(NCCc3cccc(F)c3)c3nccn3n2)c(=O)[nH]1 [Example 492, 5-(8-((3-fluorophenethyl)amino)imidazo[1,2-b]pyridazin-6-yl)pyrimidine-2,4(1H,3H)-dione] | 58.4 | 25.6
